Experimental data as given in publication PMC9021288 (Nature Communications, 2022).
Values joined by “and” are separate entries in the source; they are usually repeats but may differ in a detail not shown here. Equal values may be shown once. Read-outs that look alike come from different tables or passages of the source.

What was measured:
[1] = test system: P. falciparum NF54-HGL gametocytes; set-up: method as in earlier work; conditions: ref 15 (Schalkwijk et al.); read-out: Gametocyte IC50; cited from earlier work
[2] = test system: artemisinin-resistant P. falciparum Cambodian field isolates; test: Drug susceptibility of culture-adapted Cambodian isolates; format: cell-based, Plasmodium falciparum
Protocol: Endpoint readout to determine parasites density was performed with a High-Content Confocal Imaging microscope (Lionheart™ FX Automated Microscope, Biotek), IC50 values were obtained using ICestimator software (http://www.antimalarial-icestimator.net/runregression1.2.htm).

[3] = Metabolite identification in dog plasma and urine; conditions: in vivo
[4] = target: T1, panel of human receptors and channels (Homo sapiens, UniProt P06401); format: binding; conditions: PR (h) (agonist radioligand); Rep1, Rep2, Mean
T1 construct: purchased Eurofins CEREP

[5] = target: T2, panel of human receptors and channels (Homo sapiens, UniProt P07550); format: binding; conditions: β2 (h) (antagonist radioligand); Rep1, Rep2, Mean
T2 construct: purchased Eurofins CEREP

[6] = target: T3, panel of human receptors and channels (Homo sapiens, UniProt P08588); format: binding; conditions: β1 (h) (agonist radioligand); Rep1, Rep2, Mean
T3 construct: purchased Eurofins CEREP

[7] = target: T4, panel of human receptors and channels (Homo sapiens, UniProt P21554); format: binding; conditions: CB1 (h) (agonist radioligand); Rep1, Rep2, Mean
T4 construct: purchased Eurofins CEREP

[8] = target: T5, panel of human receptors and channels (Homo sapiens, UniProt P21728); format: binding; conditions: D1 (h) (antagonist radioligand); Rep1, Rep2, Mean
T5 construct: purchased Eurofins CEREP

[9] = target: T6, panel of human receptors and channels (Homo sapiens, UniProt P23975); format: binding; conditions: norepinephrine transporter (h) (antagonist radioligand); Rep1, Rep2, Mean
T6 construct: purchased Eurofins CEREP

[10] = target: T7, panel of human receptors and channels (Homo sapiens, UniProt P24530); format: binding; conditions: ETB (h) (agonist radioligand); Rep1, Rep2, Mean
T7 construct: purchased Eurofins CEREP

[11] = target: T8, panel of human receptors and channels (Homo sapiens, UniProt P29371); format: binding; conditions: NK3 (h) (antagonist radioligand); Rep1, Rep2, Mean
T8 construct: purchased Eurofins CEREP

[12] = target: T9, panel of human receptors and channels (Homo sapiens, UniProt P30411); format: binding; conditions: B2 (h) (agonist radioligand); Rep1, Rep2, Mean
T9 construct: purchased Eurofins CEREP

[13] = target: T10, panel of human receptors and channels (Homo sapiens, UniProt P30518); format: binding; conditions: V2 (h) (agonist radioligand); Rep1, Rep2, Mean
T10 construct: purchased Eurofins CEREP

[14] = target: T11, panel of human receptors and channels (Homo sapiens, UniProt P34981); format: binding; conditions: TRH1 (h) (agonist radioligand); Rep1, Rep2, Mean
T11 construct: purchased Eurofins CEREP

[15] = target: T12, panel of human receptors and channels (Homo sapiens, UniProt P34998); format: binding; conditions: CRF1 (h) (agonist radioligand); Rep1, Rep2, Mean
T12 construct: purchased Eurofins CEREP

[16] = target: T13, panel of human receptors and channels (Homo sapiens, UniProt P35367); format: binding; conditions: H1 (h) (antagonist radioligand); Rep1, Rep2, Mean
T13 construct: purchased Eurofins CEREP

[17] = target: T14, panel of human receptors and channels (Homo sapiens, UniProt P43681); format: binding; conditions: N neuronal α4β2 (h) (agonist radioligand); Rep1, Rep2, Mean
T14 construct: purchased Eurofins CEREP

[18] = target: T15, panel of human receptors and channels (Homo sapiens, UniProt Q9Y5N1); format: binding; conditions: H3 (h) (agonist radioligand); Rep1, Rep2, Mean
T15 construct: purchased Eurofins CEREP

[19] = test system: panel of human receptors and channels; format: binding; conditions: for % Inhibition of Control Specific Binding: Rep1, Rep2, Mean
[20] = test system: human primary hepatocytes; test: Primary hepatocyte viability (CellTiter-Blue), human; format: cell-based; conditions: for %Viability: Human primary hepatocytes
Protocol: Safety studies were performed by commercial services using their standard protocols. […] Genotoxicity was investigated using the Ames test (Bacterial Reverse Mutation Assay) (Covance Laboratories Ltd, North Yorkshire, England). In vitro mammalian cell micronucleus screening assay was studied in human peripheral blood lymphocytes (BioReliance Corporation, Rockville, USA). Cardiotoxicity was determined against the hERG channel in an automated patch clamp assay using the Qpatch or against the hNaV 1.5, hKV 1.5 and hCaV 1.2 using a manual patch-clamp technique (Metrion Biosciences, Cambridge, UK). Cytotoxicity in human and rat primary hepatocytes was assessed using the CellTiter-Blue assay performed by commercial services (KaLy-Cell). The viability of HepG2 cells was monitored through the addition of 1 mM resazurin. Following 6 h incubation, the relative amount of reduced resazurin was detected in a fluorimeter and compared to the assay controls (vehicle: 0.1% DMSO and positive control: 10 µM puromycin).

[21] = Blood to plasma ratio, mouse

T11 sequence (P34981 whole entry): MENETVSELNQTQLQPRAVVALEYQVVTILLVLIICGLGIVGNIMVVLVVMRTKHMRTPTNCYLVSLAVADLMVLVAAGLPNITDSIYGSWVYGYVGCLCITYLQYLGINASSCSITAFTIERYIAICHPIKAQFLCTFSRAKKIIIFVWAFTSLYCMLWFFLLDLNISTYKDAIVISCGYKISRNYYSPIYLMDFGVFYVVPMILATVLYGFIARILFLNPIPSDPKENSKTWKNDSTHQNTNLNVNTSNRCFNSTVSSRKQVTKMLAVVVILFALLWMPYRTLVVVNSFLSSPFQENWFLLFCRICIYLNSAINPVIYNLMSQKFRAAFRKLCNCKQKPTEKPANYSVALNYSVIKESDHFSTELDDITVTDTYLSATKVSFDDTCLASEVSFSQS
T15 sequence (Q9Y5N1 whole entry): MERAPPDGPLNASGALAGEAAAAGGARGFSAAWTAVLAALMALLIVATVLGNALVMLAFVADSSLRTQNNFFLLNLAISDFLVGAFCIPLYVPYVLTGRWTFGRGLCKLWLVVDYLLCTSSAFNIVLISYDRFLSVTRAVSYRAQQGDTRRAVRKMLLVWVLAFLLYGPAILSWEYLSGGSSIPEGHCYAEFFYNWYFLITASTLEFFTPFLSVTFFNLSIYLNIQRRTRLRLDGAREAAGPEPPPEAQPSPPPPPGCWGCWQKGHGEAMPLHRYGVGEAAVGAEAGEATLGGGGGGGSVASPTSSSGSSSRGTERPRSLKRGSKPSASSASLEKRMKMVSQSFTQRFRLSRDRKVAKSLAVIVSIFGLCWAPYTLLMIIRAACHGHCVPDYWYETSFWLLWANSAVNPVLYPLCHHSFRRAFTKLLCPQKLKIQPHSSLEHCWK
T3 sequence (P08588 whole entry): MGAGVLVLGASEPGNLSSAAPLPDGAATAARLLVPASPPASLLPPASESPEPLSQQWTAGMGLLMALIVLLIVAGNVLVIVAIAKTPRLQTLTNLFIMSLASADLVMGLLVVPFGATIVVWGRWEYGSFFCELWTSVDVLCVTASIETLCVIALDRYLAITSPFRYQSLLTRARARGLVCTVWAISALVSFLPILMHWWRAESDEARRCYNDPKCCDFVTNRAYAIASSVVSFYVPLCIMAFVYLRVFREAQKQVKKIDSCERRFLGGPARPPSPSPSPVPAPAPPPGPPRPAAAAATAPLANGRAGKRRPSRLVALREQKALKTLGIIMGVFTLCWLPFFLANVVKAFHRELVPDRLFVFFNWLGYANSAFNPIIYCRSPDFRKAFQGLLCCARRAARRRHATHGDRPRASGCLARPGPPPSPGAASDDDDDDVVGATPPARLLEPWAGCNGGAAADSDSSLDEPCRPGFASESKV
T8 sequence (P29371 whole entry): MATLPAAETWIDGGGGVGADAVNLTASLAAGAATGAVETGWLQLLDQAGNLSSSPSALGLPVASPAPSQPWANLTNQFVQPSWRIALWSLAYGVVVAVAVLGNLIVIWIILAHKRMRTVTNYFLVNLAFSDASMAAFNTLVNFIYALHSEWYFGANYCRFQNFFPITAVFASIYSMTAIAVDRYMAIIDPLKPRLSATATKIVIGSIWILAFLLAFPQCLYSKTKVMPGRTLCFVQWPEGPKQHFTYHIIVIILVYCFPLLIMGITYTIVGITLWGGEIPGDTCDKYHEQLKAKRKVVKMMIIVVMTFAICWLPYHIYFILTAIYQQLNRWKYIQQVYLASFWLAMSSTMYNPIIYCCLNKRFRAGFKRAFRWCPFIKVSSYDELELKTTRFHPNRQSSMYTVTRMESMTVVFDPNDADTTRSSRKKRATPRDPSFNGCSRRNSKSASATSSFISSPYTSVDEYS
T9 sequence (P30411 whole entry): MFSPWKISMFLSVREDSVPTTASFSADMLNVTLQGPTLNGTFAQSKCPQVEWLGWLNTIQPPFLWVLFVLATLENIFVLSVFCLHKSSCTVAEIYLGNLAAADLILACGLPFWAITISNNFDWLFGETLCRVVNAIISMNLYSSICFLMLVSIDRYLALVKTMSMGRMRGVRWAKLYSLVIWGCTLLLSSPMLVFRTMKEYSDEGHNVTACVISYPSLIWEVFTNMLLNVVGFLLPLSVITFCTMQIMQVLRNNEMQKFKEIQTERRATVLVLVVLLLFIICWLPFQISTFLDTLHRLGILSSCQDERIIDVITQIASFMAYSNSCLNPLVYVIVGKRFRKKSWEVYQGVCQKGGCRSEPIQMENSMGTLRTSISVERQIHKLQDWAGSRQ
T1 sequence (P06401 whole entry): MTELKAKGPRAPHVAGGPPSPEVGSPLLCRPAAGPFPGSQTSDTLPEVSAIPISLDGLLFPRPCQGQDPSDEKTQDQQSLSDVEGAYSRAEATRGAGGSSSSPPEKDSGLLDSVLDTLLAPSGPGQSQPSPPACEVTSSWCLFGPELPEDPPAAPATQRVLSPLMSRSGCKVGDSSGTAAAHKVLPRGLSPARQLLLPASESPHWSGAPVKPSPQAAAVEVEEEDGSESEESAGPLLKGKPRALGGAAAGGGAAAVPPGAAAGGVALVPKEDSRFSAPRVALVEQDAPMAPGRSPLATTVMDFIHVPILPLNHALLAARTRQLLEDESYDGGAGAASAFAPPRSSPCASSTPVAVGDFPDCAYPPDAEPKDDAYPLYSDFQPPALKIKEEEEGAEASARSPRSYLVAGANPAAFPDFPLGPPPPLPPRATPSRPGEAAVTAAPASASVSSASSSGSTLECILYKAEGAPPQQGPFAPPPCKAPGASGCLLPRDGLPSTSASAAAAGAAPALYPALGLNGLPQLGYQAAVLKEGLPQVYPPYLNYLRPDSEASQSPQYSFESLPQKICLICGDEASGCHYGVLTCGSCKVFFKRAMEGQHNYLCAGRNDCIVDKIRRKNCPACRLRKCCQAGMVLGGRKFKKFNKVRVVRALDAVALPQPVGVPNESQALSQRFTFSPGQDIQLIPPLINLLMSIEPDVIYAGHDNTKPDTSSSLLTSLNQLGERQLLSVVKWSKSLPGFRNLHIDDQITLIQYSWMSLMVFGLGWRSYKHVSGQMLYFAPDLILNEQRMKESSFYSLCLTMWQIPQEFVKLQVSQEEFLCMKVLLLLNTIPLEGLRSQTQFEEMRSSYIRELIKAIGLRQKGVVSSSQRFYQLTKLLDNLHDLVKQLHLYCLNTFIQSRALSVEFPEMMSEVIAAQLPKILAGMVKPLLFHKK
T6 sequence (P23975 whole entry): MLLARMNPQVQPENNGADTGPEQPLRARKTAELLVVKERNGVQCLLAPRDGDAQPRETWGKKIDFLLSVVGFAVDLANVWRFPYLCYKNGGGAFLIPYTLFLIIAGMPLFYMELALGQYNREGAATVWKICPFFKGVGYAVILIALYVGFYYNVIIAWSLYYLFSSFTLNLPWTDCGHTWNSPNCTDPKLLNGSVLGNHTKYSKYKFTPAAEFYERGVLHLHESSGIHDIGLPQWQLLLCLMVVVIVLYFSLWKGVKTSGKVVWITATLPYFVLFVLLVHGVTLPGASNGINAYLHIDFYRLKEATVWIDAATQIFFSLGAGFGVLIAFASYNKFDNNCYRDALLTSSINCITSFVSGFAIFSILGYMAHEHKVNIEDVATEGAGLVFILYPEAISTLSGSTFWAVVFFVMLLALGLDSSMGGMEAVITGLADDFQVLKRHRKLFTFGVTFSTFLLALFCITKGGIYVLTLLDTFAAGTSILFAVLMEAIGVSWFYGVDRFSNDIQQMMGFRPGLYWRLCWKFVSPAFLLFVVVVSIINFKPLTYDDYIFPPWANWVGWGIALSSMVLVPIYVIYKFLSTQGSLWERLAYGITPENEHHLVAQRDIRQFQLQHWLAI
T12 sequence (P34998 24-415): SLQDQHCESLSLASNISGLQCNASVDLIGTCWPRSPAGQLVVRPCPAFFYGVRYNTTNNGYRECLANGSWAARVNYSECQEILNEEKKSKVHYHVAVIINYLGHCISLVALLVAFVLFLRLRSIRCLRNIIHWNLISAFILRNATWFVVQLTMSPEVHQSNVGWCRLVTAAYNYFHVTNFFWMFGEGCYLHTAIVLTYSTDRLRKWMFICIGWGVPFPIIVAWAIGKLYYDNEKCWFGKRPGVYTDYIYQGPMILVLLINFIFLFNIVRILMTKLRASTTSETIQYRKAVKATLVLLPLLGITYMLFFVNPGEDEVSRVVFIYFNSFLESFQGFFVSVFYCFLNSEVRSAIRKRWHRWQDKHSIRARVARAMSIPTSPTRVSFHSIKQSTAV
T10 sequence (P30518 whole entry): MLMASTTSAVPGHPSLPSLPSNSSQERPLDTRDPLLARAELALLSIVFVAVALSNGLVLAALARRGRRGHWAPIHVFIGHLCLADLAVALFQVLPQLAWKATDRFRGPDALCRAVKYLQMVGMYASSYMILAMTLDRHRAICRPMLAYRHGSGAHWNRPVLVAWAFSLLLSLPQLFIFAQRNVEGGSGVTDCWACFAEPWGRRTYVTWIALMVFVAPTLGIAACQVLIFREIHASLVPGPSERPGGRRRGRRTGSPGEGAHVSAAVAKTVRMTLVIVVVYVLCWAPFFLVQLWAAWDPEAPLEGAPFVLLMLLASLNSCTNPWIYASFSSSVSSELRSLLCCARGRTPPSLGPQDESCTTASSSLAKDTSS
T2 sequence (P07550 whole entry): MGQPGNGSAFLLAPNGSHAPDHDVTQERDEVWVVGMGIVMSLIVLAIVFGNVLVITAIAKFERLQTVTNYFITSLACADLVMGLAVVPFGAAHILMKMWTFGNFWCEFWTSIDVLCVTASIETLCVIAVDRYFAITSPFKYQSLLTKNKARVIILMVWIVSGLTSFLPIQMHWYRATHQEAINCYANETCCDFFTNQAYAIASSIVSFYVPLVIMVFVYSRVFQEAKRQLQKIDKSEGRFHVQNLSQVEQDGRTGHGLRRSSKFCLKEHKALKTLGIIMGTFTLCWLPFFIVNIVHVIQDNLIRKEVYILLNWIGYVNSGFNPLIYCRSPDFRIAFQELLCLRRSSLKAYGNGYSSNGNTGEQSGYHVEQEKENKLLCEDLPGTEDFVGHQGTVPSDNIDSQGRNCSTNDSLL

Which IC50 [1] does the source give for `CC(CNC(=O)C(O)C(C)(C)CO)NC(=O)CCc1ccccc1F` (stereo in doubt) [MMV689258] here?
The IC50 was 12 nM.

Which results are given for `C[C@@H](CNC(=O)[C@H](O)C(C)(C)CO)NC(=O)c1cc(F)c(F)cc1F` [MMV693183]?
sensitivity of isolates [2]: sensitive to MMV693183; IC50 ([2]; ART isolates, read-out: IC50s): 1.36 nM and 1.4 nM and 1.6 nM and 1.2 nM and 1.3 nM; IC50 ([2]; ART-PPQ-AQ isolates, read-out: IC50s): 0.84 nM and 1.26 nM and 1.36 nM and 1.54 nM and 1.3 nM and 1.03 nM and 1.1 nM and 1.39 nM; IC50 ([2]; Cambodian ACT-resistant isolates, read-out: IC50): 0.21 to 1.84 nM; IC50 ([2]; MQ-ART isolates, read-out: IC50s): 1.48 nM; IC50 ([2]; WT isolates, read-out: IC50s): 1.57 nM and 1.28 nM and 1.01 nM and 1.31 nM and 1.26 nM and 1.38 nM and 1.32 nM and 1.61 nM; detected in Plasma [3]: Yes; detected in Urine [3]: Yes; % Inhibition of Control Specific Binding [4]: -7.9% and -12.3% and -10.1%; % Inhibition of Control Specific Binding [5]: 3.7% and -4.8% and -0.55%; % Inhibition of Control Specific Binding [6]: 13.7% and 4.9% and 9.3%; % Inhibition of Control Specific Binding [7]: -14.2%; % Inhibition of Control Specific Binding [8]: -2.9% and 0.3% and -1.3%; % Inhibition of Control Specific Binding [9]: -1.3% and -5.4% and -3.35%; % Inhibition of Control Specific Binding [10]: -8.6%; % Inhibition of Control Specific Binding [11]: -0.9% and 5.3% and 2.2%; % Inhibition of Control Specific Binding [12]: 0.2% and 8.4% and 4.3%; % Inhibition of Control Specific Binding [13]: 3.4% and 12.9% and 8.15%; % Inhibition of Control Specific Binding [14]: -6.1% and -7.7% and -6.9%; % Inhibition of Control Specific Binding [15]: 16.8% and 10.5% and 13.65%; % Inhibition of Control Specific Binding [16]: 6.2% and 8% and 7.1%; % Inhibition of Control Specific Binding [17]: -14.6% and -4.9% and -9.75%; % Inhibition of Control Specific Binding [18]: -9.8% and -18.8% and -14.3%; induction, GABA (non-selective) ([19]; 10 µM): 25.2%; inhibition in cross-reactivity panel of human receptors, enzymes, or channels ([19]; 10 µM): < 50%; inhibition/induction, all other binding assays ([19]; 10 µM): less than 25%; % Inhibition of Control Specific Binding ([19]; AMPA (agonist radioligand)): -3.3% and 6.3% and 1.5%; % Inhibition of Control Specific Binding ([19]; BZD (central) (agonist radioligand)): -6% and -2.2% and -4.1%; % Inhibition of Control Specific Binding ([19]; Ca2+ channel (L, dihydropyridine site) (antagonist radioligand)): -8.8% and -2.1% and -5.45%; % Inhibition of Control Specific Binding ([19]; Ca2+ channel (L, diltiazem site) (benzothiazepines) (antagonist radioligand)): -0.7% and -8.5% and -4.6%; % Inhibition of Control Specific Binding ([19]; Ca2+ channel (L, verapamil site) (phenylalkylamine) (antagonist radioligand)): -8.2% and -3.1% and -5.65%; % Inhibition of Control Specific Binding ([19]; Cl- channel (GABA-gated) (antagonist radioligand)): 3.7% and 11.5% and 7.6%; % Inhibition of Control Specific Binding ([19]; D2S (h) (antagonist radioligand)): 8.5% and 10.6% and 9.55%; % Inhibition of Control Specific Binding ([19]; GABA transporter (antagonist radioligand)): -5.4% and -8% and -6.7%; % Inhibition of Control Specific Binding ([19]; IP (PGI2) (h) (agonist radioligand)): 1.7% and -1% and 0.35%; % Inhibition of Control Specific Binding ([19]; KV channel (antagonist radioligand)): 1.3% and -0.6% and 0.35%; % Inhibition of Control Specific Binding ([19]; MT1 (ML1A) (h) (agonist radioligand)): -0.2% and 6.2% and 3%; % Inhibition of Control Specific Binding ([19]; NMDA (antagonist radioligand)): -6% and -8.3% and -7.15%; % Inhibition of Control Specific Binding ([19]; Na+ channel (site 2) (antagonist radioligand)): 17.2% and 13.3% and 15.25%; % Inhibition of Control Specific Binding ([19]; P2Y (agonist radioligand)): -7.4% and -3% and -5.2%; % Inhibition of Control Specific Binding ([19]; SKCa channel (antagonist radioligand)): -1.2% and 2.1% and 0.45%; % Inhibition of Control Specific Binding ([19]; Y (non-selective) (agonist radioligand)): -24.9% and -15.9% and -20.4%; % Inhibition of Control Specific Binding ([19]; kainate (agonist radioligand)): -0.8% and 7.7% and 3.45%; % Inhibition of Control Specific Binding ([19]; opioid (non-selective) (antagonist radioligand)): 4.1% and 0.3% and 2.2%; % Inhibition of Control Specific Binding ([19]; α1 (non-selective) (antagonist radioligand)): 2.6% and 11.7% and 7.15%; % Inhibition of Control Specific Binding ([19]; α2 (non-selective) (antagonist radioligand)): -11.5% and -12.5% and -12%; %Viability ([20]; Lot R1323T, 0.1 µM): 98%; %Viability ([20]; Lot R1323T, 0.5 µM): 92%; %Viability ([20]; Lot R1323T, 1 µM): 88%; %Viability ([20]; Lot R1323T, 5 µM): 92%; %Viability ([20]; Lot R1323T, 10 µM): 99%; %Viability ([20]; Lot S1552T, 0.1 µM): 98%; %Viability ([20]; Lot S1552T, 0.5 µM): 98%; %Viability ([20]; Lot S1552T, 1 µM): 102%; %Viability ([20]; Lot S1552T, 5 µM): 97%; %Viability ([20]; Lot S1552T, 10 µM): 104%; IC50 ([20]; primary human hepatocytes): > 10000 nM; B:P [21]: 0.98
